Measurements taken from patent US20110224276A1, “OPTICAL ISOMER OF PHENYLPROPIONIC ACID AND ITS MEDICINAL USE” (priority 2008, published 2011).

What was measured:
Cox-2 = target: T1, Cox-2 (Homo sapiens, UniProt P35354); assay: inhibiting activity to COX-2 (TMPD colorimetric, 590 nm); assay type: biochemical; settings: tested at 300, 100, 30, 10 μmol/L (positive control 100, 30, 10, 3)
T1 construct: purchased Cayman, USA
T1 sequence (P35354 18-604): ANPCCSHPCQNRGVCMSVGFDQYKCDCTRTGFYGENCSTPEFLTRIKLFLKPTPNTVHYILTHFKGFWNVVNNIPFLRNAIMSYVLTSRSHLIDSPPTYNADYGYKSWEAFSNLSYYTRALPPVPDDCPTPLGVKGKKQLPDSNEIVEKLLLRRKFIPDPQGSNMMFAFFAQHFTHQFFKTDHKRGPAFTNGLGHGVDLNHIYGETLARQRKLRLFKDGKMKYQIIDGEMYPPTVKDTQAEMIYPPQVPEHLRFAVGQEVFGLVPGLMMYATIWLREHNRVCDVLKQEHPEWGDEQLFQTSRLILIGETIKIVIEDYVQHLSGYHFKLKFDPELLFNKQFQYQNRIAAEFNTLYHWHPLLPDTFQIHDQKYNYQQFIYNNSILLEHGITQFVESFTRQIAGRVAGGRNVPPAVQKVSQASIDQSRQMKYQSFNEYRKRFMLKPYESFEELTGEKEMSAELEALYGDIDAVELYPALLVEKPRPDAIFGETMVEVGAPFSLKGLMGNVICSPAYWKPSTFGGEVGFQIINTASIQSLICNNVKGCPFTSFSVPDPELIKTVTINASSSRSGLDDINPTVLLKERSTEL
Method: 2.5.1 The Inhibiting Activity to COX-1/COX-2
(1) In 220 ul of reaction system, mixed buffer (1×), heme, COX-1/COX-2, and the compound to be tested, are sequentially added, and are incubated for 5 minutes at 25° C.;
(2) Adding chromogenic substrate (TMPD) and arachidonic acid;
(3) Carefully shaking the plate for several seconds, then incubating for 15 minutes at 25° C.;
(4) Detecting absorption value at 590 nm.
Fitting data of concentration (μmol/L) and corresponding inhibition rate (%) via Microsoft EXCEL software to get a trendline, so as to obtain the half-effective inhibiting concentration (IC50) of each tested enzyme.

[1] = system: writhing in mice induced by acetic acid; assay: writhing in mice induced by acetic acid; assay type: in vivo; settings: for ED50: Mus musculus, read-out: ED50 (mg/kg) of inhibition of writhing; for maximum inhibitory rate (%) on mouse writhing: ig 1 h before 0.6% acetic acid ip, maximum of three dose groups (30, 10, 3 mg/kg; R 90, 30, 10 mg/kg), n=10
Method: For each group, the required weights of drugs are weighted, and are milled with 0.5% CMC—Na to required concentration ready-for-use.
Each group of animals is fasted for 12 h, but drinking ad libitum. At 1 hour after intragastric administration of corresponding drugs, 0.6% acetic acid (0.2 ml/per) is intraperitoneally injected, and the number of writhing of mice in 15 min after injection are recored. The mice with waist muscle repeat shrinkage, bump back, rump torsion and posterior limb stretch are used as writhing positive animals. Inhibition rates of drugs on writhing are calculated based on the following formula:
Inhibition rate (%)=[(number of writhing of the control group−number of writhing of administrated group)/number of writhing of the control group]×100%
Inhibition rate of each dose-group on writhing (%) is obtained by means of above method. Fitting data of dosage (mg/kg) and corresponding inhibition rate (%) via Microsoft EXCEL software to get a trendline, so as to obtain the half-effective inhibiting dose (ED50) of each tested group on writhing.

[2] = system: hot plate pain threshold of mice; assay: hot plate pain threshold of mice; assay type: in vivo; settings: for pain threshold(s) 0 h: 0 h (base threshold before administration); for pain threshold(s) 0.5 h: 0.5 h after administration; for pain threshold(s) 1 h: 1 h after administration
Method: On the basis of preliminary test, 90 healthy Kunming species of Mus musculus albus are selected, female, weight 18˜22 g, […], and each group of 10 mice, said tested groups comprising:
Each group of animals is pasted for 12 h, but drinking ad libitum. Mice are placed on a homoiothermal hot plate (55±0.5[…]), and the time of occurrence of licking foot is recorded as pain threshold. Appropriate mice (whose reaction time of pain is less than 60 seconds) are selected and randomly divided into groups, and pain thresholds are measured twice before administration and the average value is used as base pain threshold. At 0.5 h and 1 hour after intragastric administration of corresponding drugs, the pain threshold of each mouse is measured (if there are no reaction of pain in 60 seconds, then the threshold is considered as 60 second).
Using Microsoft EXCEL software, the average value of pain threshold of each tested group and the average value of control group are performed t-test analysis, and P<0.05 is considered as statistically significant difference.

[3] = system: auricle tumefaction of mice caused by xylene; assay: auricle tumefaction of mice caused by xylene; assay type: in vivo; settings: 3 h after xylene
Method: 90 healthy Kunming species of Mus musculus albus are selected, male, weight 18˜22 g, totally 9 tested groups, and each group of 10 mice, said tested groups comprising:
At 0.5 h before modeling, groups (8) and (9) are administrated tested drugs, and other groups are administrated tested drugs at 1 h before modeling. During modeling, the right ears of mice are coated with xylene at concentration of 30 μl/per ear to inflame the ear, and the left ears are performed no treatment. Once 3 h after coating xylene, the animals are sacrificed, and two ears of each mouse are cut, and ear wafers are obtained by making holes at the same positions of ears with puncher with diameter of 8 mm, and then are weighted via an electronic balance.
The tumefaction degree refers to the weight difference of the weight of inflamed ear wafer minus non-inflamed ear wafer. The tumefaction rate tumefaction degree/the weight of normal ear wafer×100‰ The average value of the tumefaction degree and tumefaction rate of each tested group is compared, so as to obtain the ability of anti-inflammation of each tested drug.
Using Microsoft EXCEL software, the average value of tumefaction degree of each tested group and the average value of control group are analyzed by means of t-test, and P<0.05 is considered as statistically significant difference.

in vivo [4] = settings: mouse, in vivo, po
Excerpt: (§1) Each tested group includes 5 dose-groups during the tests as follows:
(§2) Intragastric administration (ig)
(§3) (3) Observed periods: 14 days

ICR mice [5] = assay: in vivo; settings: LD50 ig compared with S
Excerpt: as §1, §2, §3

in vivo [6] = settings: mouse, in vivo, ip
Excerpt: as §1
(§4) Intraperitoneal injection (ip)
(§5) (3) Observed periods: 14 days.

ICR mice [7] = assay: in vivo; settings: LD50 ip compared with S
Excerpt: as §1, §4, §5

SD rats = assay: long-term toxicity test in SD rats, thirteen-week consecutive intragastric administration and four-week convalescence; settings: for nontoxic dosage: 13-week consecutive intragastric administration
Method: 2. […] The tested samples are formulated into suspensions by milling with 0.5% CMC—Na; intragastric administration (10 ml/kg) every day for consecutive 13 weeks; on each day, after administration, the general conditions of the animals are observed, and weight and amount of ingestion are determined once every week. In 24 hours after the last administration, half of rats in each tested group are fasted overnight, blood samples are withdrawn via femoral arteries, and the rats are dissected, and the indexes of blood cytology and biochemics, gloss anatomy and histopathological examination are preformed. The administration to remaining half rats is stopped, and the convalescence is observed; general conditions are observed and weight and amount of ingestion are determined once every week. After 4 weeks, the observation is complete, and the half of rats in each tested group are fasted overnight, blood samples are withdrawn via femoral arteries, and the rats are dissected, and the indexes of blood cytology and biochemics, gloss anatomy and histopathological examination are preformed.

SMILES | IC50 (Cox-2) | ED50 [1] | maximum inhibitory rate (%) on mouse writhing [1] | pain threshold(s) 0 h ([2]; 40 mg/kg ig) | pain threshold(s) 0.5 h ([2]; 40 mg/kg ig) | pain threshold(s) 1 h ([2]; 40 mg/kg ig) | pain threshold(s) 0 h ([2]; 80 mg/kg ig) | pain threshold(s) 0.5 h ([2]; 80 mg/kg ig) | pain threshold(s) 1 h ([2]; 80 mg/kg ig) | tumefaction degree ([3]; 10 mg/kg ig) | tumefaction degree ([3]; 20 mg/kg ig) | Com. Vs. S (multiple) (ICR mice [5]) | Com. Vs. S (multiple) (ICR mice [7]) | nontoxic dosage (SD rats; rats) | LD50 at 14 days (in vivo [4]; ICR) | LD50 at 14 days (in vivo [6]; ICR) | also measured
CC(C(=O)O)c1ccc2c(c1)CC(=O)c1ccccc1S2 (racemic) [RS, 10,11-dihydro-alpha-methyl-10-oxo-dibenzo[b,f]tiazem-2-acetic acid, reference compound] | 7.6 µM | 9.2 mg/kg | 63.6% | 12.8 ± 3.7 s | 9.9 ± 2.7 s | 10.7 ± 5.7 s | 12.7 ± 3.1 s | 11.7 ± 5.2 s | 9.6 ± 3.5 s | 5.2 ± 2.9 mg | 3.7 ± 2.5 mg | 1.2 multiple | 1.3 multiple | 25 mg/kg |  |  | LD50 at 14 days (in vivo [4]): 327 ± 30.7 mg/kg; LD50 at 14 days (in vivo [6]): 252 ± 18.9 mg/kg; animals dead during thirteen-week administration (SD rats; 50 mg/kg ig daily, 20 rats per group): 2 animals; gastrointestinal tract toxicity (SD rats; 13-week ig, rats, S 50, 25, RS 50, R 400, 200, 100, R:S=6:1 200, 100, 50 mg/kg): produces significant gastrointestinal tract toxicity
C[C@@H](C(=O)O)c1ccc2c(c1)CC(=O)c1ccccc1S2 [R, R-10,11-dihydro-alpha-methyl-10-oxo-dibenzo[b,f]tiazem-2-acetic acid] | 48.6 µM | 25.4 mg/kg | 71.3% | 17.6 ± 13.8 s | 12.0 ± 7.8 s |  | 21.5 ± 15.5 s |  | 17.5 ± 12.3 s |  |  | 14.9 multiple | 3.7 multiple | 200 mg/kg | 3990 ± 153 mg/kg | 744 ± 69.8 mg/kg | pain threshold(s) 0 h ([2]; 160 mg/kg ig): 22.0 ± 4.9 s; pain threshold(s) 0.5 h ([2]; 160 mg/kg ig): 24.1 ± 15.1 s; pain threshold(s) 1 h ([2]; 160 mg/kg ig): 27.3 ± 11.9 s; tumefaction degree ([3]; 20 mg/kg ip): 3.5 ± 2.0 mg; tumefaction degree ([3]; 40 mg/kg ig): 3.8 ± 2.8 mg; tumefaction degree ([3]; 40 mg/kg ip): 2.3 ± 1.8 mg; tumefaction degree ([3]; 80 mg/kg ig): 2.5 ± 1.4 mg
C[C@H](C(=O)O)c1ccc2c(c1)CC(=O)c1ccccc1S2 [S, S-10,11-dihydro-alpha-methyl-10-oxo-dibenzo[b,f]tiazem-2-acetic acid] | 21.6 µM | 8.6 mg/kg | 80.1% | 12.9 ± 5.0 s | 10.8 ± 2.7 s | 10.6 ± 4.6 s | 13.6 ± 9.6 s | 12.7 ± 6.9 s | 7.9 ± 1.8 s | 4.9 ± 2.3 mg | 3.1 ± 3.2 mg | 1.0 multiple | 1.0 multiple | 12.5 mg/kg | 268 ± 22.2 mg/kg | 201 ± 14.3 mg/kg | 
